# Measurements taken from patent US20220153751A1, “BIFUNCTIONAL COMPOUNDS” (BioTheryX, Inc., priority 2018, published 2022).
# Experiments:
# Format in all cases: cell-based
# CDK9 = target: T1, CDK9 (Homo sapiens, UniProt P50750); experiment: CDK9 degradation assay (Western blot, MV-4-11 cells); conditions: 6-8 h; for Dmax at 0.1 µM: MV4-11, 0.1 μM; for Dmax at 1 µM: MV4-11, 1 μM
# T1 construct: Whole cell extracts were prepared using RIPA buffer; endogenous in cells; host or cells: MV-4-11
# Protocol: (§1) MV-4-11 cells were grown in RPMI 1640 media supplemented with 10% fetal bovine serum, streptomycin and penicillin.
# (§2) Cells were cultured at approximately 10^6 cells per mL and incubated in DMSO or the indicated compound for 6-8 h. Whole cell extracts were prepared using RIPA buffer according to manufacturer's protocol (Pierce). Briefly, 3×10^6 cells were washed once in PBS, the cell pellets were resuspended in RIPA buffer and allowed to incubate for 15 minutes on ice. Cells debris was removed by centrifugation and the cleared whole cell lysates were transferred to new tubes for further analysis.
# (§3) For Western blot analysis, whole cell protein extracts were separated on 4-12% SDS-polyacrylamide gels, transferred to nitrocellulose and probed with the indicated primary antibodies. Membranes were subsequently washed and probed with the appropriate IRDye secondary antibodies (LI-COR). The signal was detected using the Odyssey Imaging System (LI-COR).
# (§4) The following antibodies were used in these studies: Anti-eRF3/GSPT1: Abcam, ab126090 (Cambridge, Mass.); Anti-Ikaros: Abcam, ab191394 (Cambridge, Mass.); Anti-CK1α: Abcam, ab108296 (Cambridge, Mass.); Anti-CDK9: Santa Cruz Biotechnology, sc13130 (Dallas, Tex.); Anti-CDK16: Millipore Sigma, HPA001366 (St. Louis, Mo.); 3-actin (8H10comD10) mouse monoclonal antibody: Cell Signaling Technology, #3700 (Danvers, Mass.); IRDye 680RD Goat anti-rabbit antibody: LI-COR, 926-68071 (Lincoln, Nebr.); IRDye 800CW Goat anti-mouse antibody: LI-COR, 926-32210 (Lincoln, Nebr.).
# (§5) CDK9 activities are shown in Table 4 at two different concentrations. CDK16 activities are shown in Table 5 at two different concentrations. In each of Tables 1-5, the % degradation values are reported as “A”, “B”, “C”, or “D”. “A” represents a % degradation value of less than 25% (value <25%). “B” represents a % degradation value of equal to or more than 25% and less than 50% (25%≤value<50%). “C” represents a % degradation value of equal to or more than 50% and less than 75% (50%≤value<75%). “D” represents a % degradation value of equal to or more than 75% (value ≥75%).
# GSPT1 = target: T2, GSPT1 (Homo sapiens, UniProt P15170+Q96SW2); experiment: GSPT1 degradation assay (Western blot, MV-4-11 cells); conditions: MV4-11, 6-8 h
# T2 construct: Whole cell extracts were prepared using RIPA buffer; endogenous in cells; host or cells: MV-4-11
# T2 sequence (P15170 whole entry): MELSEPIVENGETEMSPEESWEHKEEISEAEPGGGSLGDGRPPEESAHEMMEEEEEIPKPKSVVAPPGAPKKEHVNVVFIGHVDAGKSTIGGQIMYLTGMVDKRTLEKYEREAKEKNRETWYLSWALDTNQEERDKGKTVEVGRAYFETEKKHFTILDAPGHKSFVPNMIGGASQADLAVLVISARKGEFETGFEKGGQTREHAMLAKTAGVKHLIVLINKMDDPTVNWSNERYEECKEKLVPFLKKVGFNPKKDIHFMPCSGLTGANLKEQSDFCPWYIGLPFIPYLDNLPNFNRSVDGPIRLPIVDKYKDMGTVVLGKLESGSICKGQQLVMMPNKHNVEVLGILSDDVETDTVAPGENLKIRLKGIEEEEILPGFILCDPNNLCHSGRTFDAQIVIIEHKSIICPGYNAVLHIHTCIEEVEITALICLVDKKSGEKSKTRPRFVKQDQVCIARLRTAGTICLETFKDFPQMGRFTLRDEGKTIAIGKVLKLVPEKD
# T2 sequence (Q96SW2 whole entry): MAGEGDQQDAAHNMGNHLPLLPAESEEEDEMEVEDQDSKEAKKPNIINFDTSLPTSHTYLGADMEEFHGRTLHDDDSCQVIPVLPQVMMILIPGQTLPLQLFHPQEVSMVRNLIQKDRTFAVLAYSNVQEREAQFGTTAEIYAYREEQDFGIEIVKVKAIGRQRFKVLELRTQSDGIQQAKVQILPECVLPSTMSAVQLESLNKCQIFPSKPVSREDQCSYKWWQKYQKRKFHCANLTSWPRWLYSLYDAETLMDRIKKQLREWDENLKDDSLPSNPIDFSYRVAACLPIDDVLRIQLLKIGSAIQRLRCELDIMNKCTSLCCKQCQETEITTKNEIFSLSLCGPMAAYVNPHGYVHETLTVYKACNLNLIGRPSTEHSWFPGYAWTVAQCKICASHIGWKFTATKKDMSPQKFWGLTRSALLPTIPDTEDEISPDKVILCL
# T2 sequence (Q16531 whole entry partner): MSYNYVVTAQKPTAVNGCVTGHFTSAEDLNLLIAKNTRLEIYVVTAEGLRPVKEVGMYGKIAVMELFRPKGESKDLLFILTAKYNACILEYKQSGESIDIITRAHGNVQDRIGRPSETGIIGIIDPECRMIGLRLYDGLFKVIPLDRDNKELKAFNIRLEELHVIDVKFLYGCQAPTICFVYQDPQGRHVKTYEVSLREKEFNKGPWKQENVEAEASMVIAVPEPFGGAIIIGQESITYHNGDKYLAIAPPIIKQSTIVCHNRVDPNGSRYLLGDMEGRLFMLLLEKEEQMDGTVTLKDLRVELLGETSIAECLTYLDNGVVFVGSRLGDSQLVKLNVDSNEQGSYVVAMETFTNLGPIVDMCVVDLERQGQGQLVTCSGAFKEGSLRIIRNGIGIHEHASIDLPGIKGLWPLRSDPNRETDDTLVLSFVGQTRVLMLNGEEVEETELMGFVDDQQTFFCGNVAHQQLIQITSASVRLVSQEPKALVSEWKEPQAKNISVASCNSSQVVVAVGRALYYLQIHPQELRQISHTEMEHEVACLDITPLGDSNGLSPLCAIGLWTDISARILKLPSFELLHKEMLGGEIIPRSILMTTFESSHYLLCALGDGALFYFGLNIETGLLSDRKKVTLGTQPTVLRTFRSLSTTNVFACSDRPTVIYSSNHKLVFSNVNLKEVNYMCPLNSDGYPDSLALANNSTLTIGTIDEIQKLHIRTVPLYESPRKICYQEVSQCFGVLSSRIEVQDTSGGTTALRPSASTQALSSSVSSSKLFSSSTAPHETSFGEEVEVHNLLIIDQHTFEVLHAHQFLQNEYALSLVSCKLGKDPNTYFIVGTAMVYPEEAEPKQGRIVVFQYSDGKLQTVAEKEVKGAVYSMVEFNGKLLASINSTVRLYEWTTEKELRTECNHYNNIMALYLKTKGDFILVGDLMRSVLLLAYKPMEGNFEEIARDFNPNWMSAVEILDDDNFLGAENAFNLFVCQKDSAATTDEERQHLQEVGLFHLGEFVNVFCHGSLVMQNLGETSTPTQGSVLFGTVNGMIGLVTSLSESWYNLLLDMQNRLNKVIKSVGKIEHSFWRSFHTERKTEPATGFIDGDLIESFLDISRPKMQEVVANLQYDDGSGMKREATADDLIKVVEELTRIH
# Protocol: as §1, §2, §3, §4, §5
# CDK16 = target: T3, CDK16 (Homo sapiens, UniProt Q00536); experiment: CDK16 degradation assay (Western blot, MV-4-11 cells); conditions: 6-8 h; for Dmax at 0.1 µM: MV4-11, 0.1 μM; for Dmax at 1 µM: MV4-11, 1 μM
# T3 construct: Whole cell extracts were prepared using RIPA buffer; endogenous in cells; host or cells: MV-4-11
# T3 sequence (Q00536 whole entry): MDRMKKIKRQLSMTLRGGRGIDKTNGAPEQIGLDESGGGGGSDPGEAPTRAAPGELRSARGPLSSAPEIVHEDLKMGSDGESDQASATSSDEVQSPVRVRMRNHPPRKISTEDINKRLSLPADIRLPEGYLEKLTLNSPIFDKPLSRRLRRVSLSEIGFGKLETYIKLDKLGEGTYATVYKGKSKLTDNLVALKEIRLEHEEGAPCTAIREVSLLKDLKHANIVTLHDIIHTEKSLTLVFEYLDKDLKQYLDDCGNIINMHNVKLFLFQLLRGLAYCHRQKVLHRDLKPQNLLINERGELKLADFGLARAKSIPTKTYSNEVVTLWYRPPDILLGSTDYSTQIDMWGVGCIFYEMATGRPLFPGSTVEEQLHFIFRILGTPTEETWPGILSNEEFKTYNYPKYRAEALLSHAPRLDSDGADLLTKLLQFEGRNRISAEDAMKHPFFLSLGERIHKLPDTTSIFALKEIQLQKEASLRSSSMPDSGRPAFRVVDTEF
# Protocol: as §1, §2, §3, §4, §5
# MOLM-13 cells = experiment: MOLM-13 cell viability assay (CellTiter-Glo); conditions: Homo sapiens, MOLM-13, 72 h, 3 days, read-out: MOLM-13 Cell Viability % DMSO at 1 μM
# Protocol: MOLM-13 cells were cultured in RPMI 1640 media supplemented with 10% fetal bovine serum, streptomycin and penicillin, and were plated in walled 96-well plates at 2500 cells/well. Cells were incubated in DMSO (control) or the indicated compound for 3 days at 37° C. and 5% CO2. Following the incubation period, 100 μL of CellTiterGlow (CTG) reagent (CellTiter-Glo® Luminescent Cell Viability Assay, Promega (Madison, Wis.)) was added to each well. Following a 10 minutes incubation with shaking, luminescence was measured using the EnVision Multimode plate reader.
# The MOLM-13 cell viability values as % DMSO are reported as “A”, “B”, “C”, or “D”. “A” represents a % viability value of less than 50% (value <50%). “B” represents a % viability value of equal to or more than 50% and less than 70% (50%≤value<70%). “C” represents a % viability value of equal to or more than 70% and less than 90% (70%≤value<90%). “D” represents a % viability value of equal or more than 90% (value ≥90%).
# IKAROS = target: T4, IKAROS (Homo sapiens, UniProt Q13422+Q96SW2); experiment: IKAROS degradation assay (Western blot, MV-4-11 cells); conditions: MV4-11, 6-8 h
# T4 construct: endogenous in cells; host or cells: MV-4-11
# T4 sequence (Q13422 whole entry): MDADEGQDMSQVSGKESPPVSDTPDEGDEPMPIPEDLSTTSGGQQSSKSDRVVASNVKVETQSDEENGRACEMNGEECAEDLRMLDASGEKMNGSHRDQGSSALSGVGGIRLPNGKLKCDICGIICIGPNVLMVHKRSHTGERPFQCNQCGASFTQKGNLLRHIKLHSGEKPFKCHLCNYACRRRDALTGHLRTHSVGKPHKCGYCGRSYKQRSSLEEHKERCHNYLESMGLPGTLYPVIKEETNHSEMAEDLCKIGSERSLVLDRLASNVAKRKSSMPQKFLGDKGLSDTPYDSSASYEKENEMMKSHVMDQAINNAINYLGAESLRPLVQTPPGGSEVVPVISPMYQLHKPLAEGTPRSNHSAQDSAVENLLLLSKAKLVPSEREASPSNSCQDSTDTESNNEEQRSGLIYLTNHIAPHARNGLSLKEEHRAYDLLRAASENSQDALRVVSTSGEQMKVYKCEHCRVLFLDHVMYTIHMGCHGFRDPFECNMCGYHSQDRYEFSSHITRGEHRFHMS
# T4 sequence (Q96SW2 whole entry): as the sequence (Q96SW2 whole entry) above
# T4 sequence (Q16531 whole entry partner): as the sequence (Q16531 whole entry partner) above
# Protocol: as §1, §2, §3, §4, §5
# IL-6 = IL-6 inhibition assay, LPS-induced PBMCs / CD14+ monocytes (Meso Scale); conditions: 1 h pretreatment, 100 ng/mL LPS 18-24 h
# Protocol: (§6) Either frozen primary blood mononuclear cells (PBMCs) or frozen CD14+ mobilized peripheral blood monocytes were purchased from AllCells (PB003F, Normal Peripheral Blood MNC (Alameda, Calif.)). Cells were quick thawed, washed 1-time with RPMI-1640 (10% FBS/1% Pen-Strep) and plated in 96 well plates at 200,000 cells per well. Cells were pretreated with DMSO only or with the indicated compound for 1 h and then induced with 100 ng/mL lipopolysaccharide (LPS) for 18-24 h. The supernatant was analyzed for IL-1β, IL-6, and TNFα, using Meso Scale assay according to manufacturer's protocol. The negative control wells were treated with DMSO.
# (§7) In Table 6, the % inhibition values are reported as “A”, “B”, “C”, or “D”. “A” represents a % inhibition value of less than 50% (value <50%). “B” represents a % inhibition value of equal to or more than 50% and less than 70% (50%≤value<70%). “C” represents a % inhibition value of equal to or more than 70% and less than 90% (70%≤value<90%). “D” represents a % inhibition value of equal or more than 90% (value ≥90%). In Table 7, the fold-change values are reported as “A”, “B”, “C”, or “D”. “A” represents a fold-change value of equal to or less than 0.1 (value ≤0.1). “B” represents a fold-change value of more than 0.1 and equal to or less than 0.5 (0.1<value≤0.5). “C” represents a fold-change value of more than 0.5 and equal to or less than 1 (0.5<value≤1). “D” represents a fold-change value of more than 1 (value >1).
# IL-1β = IL-1β inhibition assay, LPS-induced PBMCs / CD14+ monocytes (Meso Scale); conditions: 1 h pretreatment, 100 ng/mL LPS 18-24 h
# Protocol: as §6, §7
# TNF-α = TNF-α inhibition assay, LPS-induced PBMCs / CD14+ monocytes (Meso Scale); conditions: 1 h pretreatment, 100 ng/mL LPS 18-24 h
# Protocol: as §6, §7
# T1 sequence (P50750 whole entry): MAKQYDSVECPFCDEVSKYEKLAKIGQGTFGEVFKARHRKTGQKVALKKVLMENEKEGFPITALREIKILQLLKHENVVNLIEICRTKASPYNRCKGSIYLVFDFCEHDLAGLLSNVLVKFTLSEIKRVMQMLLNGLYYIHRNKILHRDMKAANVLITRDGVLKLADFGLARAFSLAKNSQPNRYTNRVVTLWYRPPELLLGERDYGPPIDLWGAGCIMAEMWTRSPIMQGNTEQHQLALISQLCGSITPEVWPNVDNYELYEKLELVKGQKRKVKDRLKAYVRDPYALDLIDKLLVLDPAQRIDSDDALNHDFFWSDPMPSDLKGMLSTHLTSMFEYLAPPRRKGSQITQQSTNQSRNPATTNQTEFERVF
Compound,Dmax at 0.1 µM (CDK9),Dmax at 1 µM (CDK9),Dmax at 1 µM (GSPT1),Dmax at 0.1 µM (CDK16),Dmax at 1 µM (CDK16),viability at 1 µM (MOLM-13 cells),Dmax at 1 µM (IKAROS),inhibition at 1 µM (IL-6),inhibition at 1 µM (IL-1β),inhibition at 1 µM (TNF-α)
"Cn1ncc(-c2nc(N[C@H]3CC[C@H](NCC(=O)NCCCCNCC(=O)NCc4cc5c(s4)C(=O)N(C4CCC(=O)NC4=O)C5)CC3)ncc2F)c1CC1CC1 (some centres unmarked) [Compound 29, 2-(((1r,4r)-4-((4-(5-(cyclopropylmethyl)-1-methyl-1H-pyrazol-4-yl)-5-fluoropyrimidin-2-yl)amino)cyclohexyl)amino)-N-(4-((2-(((5-(2,6-dioxopiperidin-3-yl)-6-oxo-5,6-dihydro-4H-thieno[2,3-c]pyrrol-2-yl)methyl)amino)-2-oxoethyl)amino)butyl)acetamide]",25 to 50%,50 to 75%,< 25%,25 to 50%,50 to 75%,> 90%,50 to 75%,,,
"Cn1ncc(-c2nc(N[C@H]3CC[C@H](NCC(=O)NCCCCCNCC(=O)NCc4scc5c4CN(C4CCC(=O)NC4=O)C5=O)CC3)ncc2F)c1CC1CC1 (some centres unmarked) [Compound 32, 2-(((1r,4r)-4-((4-(5-(cyclopropylmethyl)-1-methyl-1H-pyrazol-4-yl)-5-fluoropyrimidin-2-yl)amino)cyclohexyl)amino)-N-(5-((2-(((5-(2,6-dioxopiperidin-3-yl)-4-oxo-5,6-dihydro-4H-thieno[3,4-c]pyrrol-1-yl)methyl)amino)-2-oxoethyl)amino)pentyl)acetamide]",50 to 75%,≥ 75%,25 to 50%,50 to 75%,≥ 75%,> 90%,50 to 75%,,,
"Cn1ncc(-c2nc(N[C@H]3CC[C@H](NCCCCCCCNCc4ccc(OCc5scc6c5CN([C@H]5CCC(=O)NC5=O)C6=O)cc4)CC3)ncc2Cl)c1CC1CC1 [Compound 68, (S)-3-(1-((4-(((7-(((1r,4r)-4-((5-chloro-4-(5-(cyclopropylmethyl)-1-methyl-1H-pyrazol-4-yl)pyrimidin-2-yl)amino)cyclohexyl)amino)heptyl)amino)methyl)phenoxy)methyl)-4-oxo-4H-thieno[3,4-c]pyrrol-5(6H)-yl)piperidine-2,6-dione]",,,≥ 75%,,,> 90%,≥ 75%,,,
"Cn1ncc(-c2nc(N[C@H]3CC[C@H](NCCOCCOCCOCCNCc4cc5c(s4)C(=O)N(C4CCC(=O)NC4=O)C5)CC3)ncc2Cl)c1CC1CC1 (some centres unmarked) [Compound 66, 3-(2-(13-(((1r,4r)-4-((5-chloro-4-(5-(cyclopropylmethyl)-1-methyl-1H-pyrazol-4-yl)pyrimidin-2-yl)amino)cyclohexyl)amino)-5,8,11-trioxa-2-azatridecyl)-6-oxo-4,6-dihydro-5H-thieno[2,3-c]pyrrol-5-yl)piperidine-2,6-dione]",,,50 to 75%,,,50 to 70%,,< 50%,< 50%,< 50%
"Cn1ncc(-c2nc(N[C@H]3CC[C@H](NCC(=O)NCCOCCOCCOCCNCC(=O)NCc4cc5c(s4)C(=O)N(C4CCC(=O)NC4=O)C5)CC3)ncc2Cl)c1CC1CC1 (some centres unmarked) [Compound 43, 14-(2-(((1r,4r)-4-((5-chloro-4-(5-(cyclopropylmethyl)-1-methyl-1H-pyrazol-4-yl)pyrimidin-2-yl)amino)cyclohexyl)amino)acetamido)-N-((5-(2,6-dioxopiperidin-3-yl)-6-oxo-5,6-dihydro-4H-thieno[2,3-c]pyrrol-2-yl)methyl)-6,9,12-trioxa-3-azatetradecanamide]",,,50 to 75%,,,50 to 70%,,< 50%,< 50%,< 50%
"CC(C)(C)c1cnc(CSc2cnc(NC(=O)C3CCN(CC(=O)NCCCCNCC(=O)NCc4cc5c(s4)C(=O)N(C4CCC(=O)NC4=O)C5)CC3)s2)o1 (centres unmarked) [Compound 14, N-(5-(((5-(tert-butyl)oxazol-2-yl)methyl)thio)thiazol-2-yl)-1-(2-((4-((2-(((5-(2,6-dioxopiperidin-3-yl)-6-oxo-5,6-dihydro-4H-thieno[2,3-c]pyrrol-2-yl)methyl)amino)-2-oxoethyl)amino)butyl)amino)-2-oxoethyl)piperidine-4-carboxamide]",25 to 50%,≥ 75%,25 to 50%,< 25%,25 to 50%,> 90%,< 25%,,,
"Cn1ncc(-c2nc(N[C@H]3CC[C@H](NCC(=O)NCCOCCOCCOCCNc4cccc5c4C(=O)N(C4CCC(=O)NC4=O)C5=O)CC3)ncc2Cl)c1CC1CC1 (some centres unmarked) [Compound 49, 2-(((1r,4r)-4-((5-chloro-4-(5-(cyclopropylmethyl)-1-methyl-1H-pyrazol-4-yl)pyrimidin-2-yl)amino)cyclohexyl)amino)-N-(2-(2-(2-(2-((2-(2,6-dioxopiperidin-3-yl)-1,3-dioxoisoindolin-4-yl)amino)ethoxy)ethoxy)ethoxy)ethyl)acetamide]",,,< 25%,,,> 90%,50 to 75%,,,
"Cn1ncc(-c2nc(N[C@H]3CC[C@H](NCC(=O)NCCCCNCC(=O)NCc4scc5c4CN(C4CCC(=O)NC4=O)C5=O)CC3)ncc2Cl)c1CC1CC1 (some centres unmarked) [Compound 38, 2-(((1r,4r)-4-((5-chloro-4-(5-(cyclopropylmethyl)-1-methyl-1H-pyrazol-4-yl)pyrimidin-2-yl)amino)cyclohexyl)amino)-N-(4-((2-(((5-(2,6-dioxopiperidin-3-yl)-4-oxo-5,6-dihydro-4H-thieno[3,4-c]pyrrol-1-yl)methyl)amino)-2-oxoethyl)amino)butyl)acetamide]",50 to 75%,≥ 75%,50 to 75%,50 to 75%,≥ 75%,> 90%,25 to 50%,,,
